# According to US20250360167A1 (Keryx Biopharmaceuticals, Inc., priority 2013, published 2025):
# Experiments:
# [1] = Dissolution testing, USP <711> vessels, Apparatus II; assay type: physicochemical; details: relative to standard = 100
# [2] = test system: serum phosphorus; experiment: Phase 3 trial in ESRD patients on dialysis (Example 1), 52-week Safety Assessment Period: serum phosphorus vs active control; assay type: in vivo, human; details: for Mean Serum Phosphorus / Mean Serum Phosphorus, % Change from Baseline / Mean Serum Phosphorus, Change from Baseline: Table B; for Serum Phosphorus, Mean / Serum Phosphorus, Median: Safety Assessment Period; for Serum Phosphorus, Mean / Serum Phosphorus, Median / Serum Phosphorus, LS Mean / Serum Phosphorus, Change from Baseline, Mean / Serum Phosphorus, Change from Baseline, Median / Serum Phosphorus, Treatment Differences, LS Mean (KRX-0502) − LS Mean (control): Table 13; for Serum Phosphorus, Change from Baseline, Mean / Serum Phosphorus, Change from Baseline, Median: Day 0 baseline
# Protocol: This trial was a three-period, multicenter, safety and efficacy clinical trial.
# Period 2 (Safety Assessment Period). […] Patients were followed on their randomized assignment for safety assessments over 52 weeks.
# For patients randomized to the active-control group, the starting dose of phosphate binder was the last dose that was administered immediately prior to the start of the Washout Period (if the patient remained on the same phosphate binder) or at the discretion of the PI, guided by the package insert, if the patient changed binders. However, for patients whose previous dose of phosphate binder exceeded 12 pills/day, if randomized to the active-control group, their starting dose of active-control drug was at the discretion of the PI, but will not exceed 12 pills/day. Calcium acetate 667 mg capsules and sevelamer carbonate 800 mg tablets were used and were supplied by Keryx Biopharmaceuticals, Inc. (Keryx) for the duration of the trial.
# Serum phosphorus and calcium were checked at Visit 5 (Week 1), and every two weeks during the first 12 weeks after Visit 4 (Randomization Visit), and monthly for the rest of the Safety Assessment Period. During the Efficacy Assessment Period, serum phosphorus and calcium were drawn weekly. These values guided study drug administration. While on study drug, the use of other phosphate binders was not permitted. […] The titration of calcium acetate and sevelamer carbonate throughout the 52-week Safety Assessment Period were according to the current package inserts for these agents and/or at the discretion of the site PI.
# Serum phosphorus and calcium were performed at Screening (Visit 0); weekly during the Washout Period after Visit 1 (Week −2); at Visit 4 (Randomization Visit); at Visits 5 (Week 1), 6 (Week 2), 7 (Week 4), 8 (Week 6), 9 (Week 8), 10 (Week 10), 11 (Week 12), 12 (Week 16), 13 (Week 20), 14 (Week 24), 15 (Week 28), 16 (Week 32), 17 (Week 36), 18 (Week 40), 19 (Week 44), 20 (Week 48), and 21 (Week 52) of the 52-week Safety Assessment Period; and at Visits 22 (Week 53), 23 (Week 54), 24 (Week 55) and 25 (Week 56) of the Efficacy Assessment Period.
# The efficacy analyses were based on Full Analysis (FA) population that consisted of all patients who took at least one dose of study medication and provided baseline and at least one post-baseline efficacy assessment. The safety analyses were based on safety population that was consistent of all patients who took at least one dose of study medication.
# • 1. Change in serum phosphorus concentration at Weeks 12, 24, 36, 48, and 52 as compared to baseline (Visit 4). This variable will be analyzed using LOCF methodology. ANCOVA will be employed. The model will include treatment (fixed effect), and baseline (covariate).
# [3] = Phase 3 trial (Example 1): cumulative IV iron intake to Week 52; assay type: in vivo, human
# Protocol: Laboratory measurements were conducted throughout the study to assess safety and efficacy. The dose and specific IV iron preparation administered (if necessary) were at the discretion of the PI. Oral iron therapy was not permitted. Calcium-containing drugs were not permitted if given within two hours of food ingestion (calcium-containing drugs were permitted two hours or more prior to or following food ingestion or at bedtime for the purpose of raising the serum calcium). No Vitamin C supplements were permitted. Patients were allowed to take daily water soluble vitamins that include a small amount of Vitamin C (e.g., Centrum, Nephrocaps, Renaphro), but those patients were instructed to take them two hours or more prior to or following food ingestion or at bedtime. IV iron therapy was not permitted if the ferritin level is >1000 micrograms/L or the TSAT is >30%. If it was deemed in the patient's best interest to receive IV iron outside these parameters, the Clinical Coordinating Center (CCC) was consulted, and when approved and documented, was not considered a protocol exception.
# The cumulative IV iron intake from randomization to Week 52 will be compared between treatment groups. This variable will be similarly analyzed as the primary efficacy variable using ANCOVA method. The two-sided 95% confidence intervals of treatment differences for all above comparisons will be presented.
# [4] = Method 1 to Handle Overlapping Doses, Table 19
substance,measurement,setting,value
"iron (+3), x (1, 2, 3-propanetricarboxylic acid, 2-hydroxy-), y (H2O) [KRX-0502]","Dissolution testing, percentage dissolved",[1]; 5 minutes,≥ 91%
same,"Dissolution testing, percentage dissolved",[1]; 15 minutes,≥ 96%
same,"Dissolution testing, percentage dissolved",[1]; 30 minutes,≥ 96%
same,"Dissolution testing, percentage dissolved",[1]; 60 minutes,≥ 95%
same,Mean Serum Phosphorus,"[2]; Baseline, N = 277",7.4 mg/dL
same,"Phosphorus, Median","[2]; Baseline, Table 12",7.20 mg/dL
same,"Phosphorus, Mean","[2]; Baseline, Table 12, vs sevelamer carbonate as a single agent",7.39 mg/dL
same,"Serum Phosphorus, Mean",[2]; Day 0 Baseline,7.39
same,"Serum Phosphorus, Median",[2]; Day 0 Baseline,7.20
same,"Phosphorus, Week 12 Change from Baseline, Mean",[2]; Table 12,-2.01 mg/dL
same,"Phosphorus, Week 12 Change from Baseline, Median",[2]; Table 12,-2.00 mg/dL
same,"Phosphorus, LS Mean","[2]; Week 12, ANCOVA, Day-0 baseline covariate, Table 12",5.38 mg/dL
same,"Serum Phosphorus, LS Mean","[2]; Week 12, ANCOVA",5.39
same,"Serum Phosphorus, Change from Baseline, Mean",[2]; Week 12,−2.01
same,"Serum Phosphorus, Change from Baseline, Median",[2]; Week 12,−2.00
same,Mean Serum Phosphorus,"[2]; Week 12, LOCF",5.4 mg/dL
same,"Serum Phosphorus, Mean",[2]; Week 12,5.38
same,"Serum Phosphorus, Median",[2]; Week 12,5.10
same,"Phosphorus, Mean","[2]; Week 12, Table 12",5.38 mg/dL
same,"Phosphorus, Median","[2]; Week 12, Table 12",5.10 mg/dL
same,"Serum Phosphorus, Treatment Differences, LS Mean (KRX-0502) − LS Mean (control)",[2]; Week 12,0.07
same,"Mean Serum Phosphorus, % Change from Baseline",[2]; Week 12,−27%
same,"Mean Serum Phosphorus, Change from Baseline",[2]; Week 12,-2.0 mg/dL
same,"Phosphorus, Treatment Differences, LS Mean (KRX-0502) − LS Mean (Control)","[2]; Week 12, control = sevelamer carbonate as a single agent",0.16 mg/dL
same,"Serum Phosphorus, LS Mean","[2]; Week 24, ANCOVA",5.26
same,"Serum Phosphorus, Change from Baseline, Mean",[2]; Week 24,−2.14
same,"Serum Phosphorus, Change from Baseline, Median",[2]; Week 24,−2.10
same,Mean Serum Phosphorus,"[2]; Week 24, LOCF",5.2 mg/dL
same,"Serum Phosphorus, Mean",[2]; Week 24,5.24
same,"Serum Phosphorus, Median",[2]; Week 24,5.10
same,"Serum Phosphorus, Treatment Differences, LS Mean (KRX-0502) − LS Mean (control)",[2]; Week 24,−0.21
same,"Mean Serum Phosphorus, % Change from Baseline",[2]; Week 24,−30%
same,"Mean Serum Phosphorus, Change from Baseline",[2]; Week 24,-2.2 mg/dL
same,"Serum Phosphorus, LS Mean","[2]; Week 36, ANCOVA",5.24
same,"Serum Phosphorus, Change from Baseline, Mean",[2]; Week 36,−2.16
same,"Serum Phosphorus, Change from Baseline, Median",[2]; Week 36,−2.10
same,Mean Serum Phosphorus,"[2]; Week 36, LOCF",5.2 mg/dL
same,"Serum Phosphorus, Mean",[2]; Week 36,5.22
same,"Serum Phosphorus, Median",[2]; Week 36,5.10
same,"Serum Phosphorus, Treatment Differences, LS Mean (KRX-0502) − LS Mean (control)",[2]; Week 36,−0.05
same,"Mean Serum Phosphorus, % Change from Baseline",[2]; Week 36,−30%
same,"Mean Serum Phosphorus, Change from Baseline",[2]; Week 36,-2.2 mg/dL
same,"Serum Phosphorus, LS Mean","[2]; Week 48, ANCOVA",5.33
same,"Serum Phosphorus, Change from Baseline, Mean",[2]; Week 48,−2.07
same,"Serum Phosphorus, Change from Baseline, Median",[2]; Week 48,−2.10
same,Mean Serum Phosphorus,"[2]; Week 48, LOCF",5.3 mg/dL
same,"Serum Phosphorus, Mean",[2]; Week 48,5.32
same,"Serum Phosphorus, Median",[2]; Week 48,5.20
same,"Serum Phosphorus, Treatment Differences, LS Mean (KRX-0502) − LS Mean (control)",[2]; Week 48,−0.12
same,"Mean Serum Phosphorus, % Change from Baseline",[2]; Week 48,−28%
same,"Mean Serum Phosphorus, Change from Baseline",[2]; Week 48,-2.1 mg/dL
same,"Serum Phosphorus, LS Mean","[2]; Week 52, ANCOVA",5.33
same,"Serum Phosphorus, Change from Baseline, Mean",[2]; Week 52,−2.06
same,"Serum Phosphorus, Change from Baseline, Median",[2]; Week 52,−2.20
same,Mean Serum Phosphorus,"[2]; Week 52, LOCF",5.3 mg/dL
same,"Serum Phosphorus, Mean",[2]; Week 52,5.32
same,"Serum Phosphorus, Median",[2]; Week 52,5.20
same,"Serum Phosphorus, Treatment Differences, LS Mean (KRX-0502) − LS Mean (control)",[2]; Week 52,−0.01
same,"Mean Serum Phosphorus, % Change from Baseline",[2]; Week 52,−28%
same,"Mean Serum Phosphorus, Change from Baseline",[2]; Week 52,-2.1 mg/dL
same,"Average Daily IV iron intake based on the Cumulative IV iron intake to week 52 (Visit 4-21), Mean",[3]; [4],2.96
same,"Average Daily IV iron intake based on the Cumulative IV iron intake to week 52 (Visit 4-21), Median",[3]; [4],1.86
same,mean reduction in average cumulative IV iron intake,"[3]; administered over a period of 52 weeks, stated as embodiment",51.6%
